# Where two headings read alike, the source gives them in different places.
# Assays:
# Format in all cases: cell-based
# [1] = test system: Cryptococcus neoformans BNCC225501; assay: MIC by microdilution method, sensitive Cryptococcus neoformans; details: Cryptococcus neoformans, read-out: MIC Cryptococcus neoformans
# Excerpt: (§1) Used bacteria: including drug-resistant bacteria and sensitive bacteria: the used sensitive strains include Cryptococcus neoformans BNCC225501, Candida albicans BNCC186382, Aspergillus fumigatus Fresenius BNCC338385, Escherichia coli BNCC336902, Staphylococcus aureus BNCC186335 and Pseudomonas aeruginosa Migula BNCC337940, and the used drug-resistant Candida albicans is clinically isolated azole multi-drug resistant Candida albicans (CA10) donated by Qianfoshan Hospital in Shandong Province. The strains are stored in normal saline containing 20% glycerol at −80° C. for a long time. Before operation, the strains are lined and transferred to a YPD solid plate, and subjected to static culture at 30° C. for 24 h; single colonies are selected and transferred to a YPD liquid medium, and cultured at 200 rpm at 30° C. overnight; and the overnight cultured bacterial solution is inoculated into a new YPD liquid medium at a ratio of about 1:100, and subjected to shaking culture at 200 rpm at 30° C. for 4 h so that Candida albicans is in a logarithmic phase.
# (§2) Culture medium: the culture medium used by the microdilution method is RPMI-1640 culture medium (Gibco).
# (§3) 1.2 Operation and results of detection of minimum inhibitory concentration (MIC) of the compounds and the azole drugs by the microdilution method: the MIC of the synthesized compound and the azole drug fluconazole for the standard strains is detected by the microdilution method according to fungal sensitivity detection method (M27-A3) established by the Clinical and Laboratory Standards Institute (CLSI). Specific steps are as follows: the prepared strain concentration is adjusted to 0.5-2.5×10^3 CFU/mL by using RPMI-1640 medium. 200 μL of bacterial solution containing the highest concentration of the drug to be detected is added into the first well of a 96-well plate, and 100 μL of blank bacterial solution without drug is added into each of the other wells; the bacterial solution is diluted to a series of concentration gradients by a double gradient dilution method; the well plate is subjected to static culture at constant temperature of 35° C. for 24 h; after the absorbance (OD) of each concentration gradient at 570 nm is detected by a microplate reader and the absorbance of a blank medium is subtracted, the growth rate=dosing hole value/control hole value ×100%, the inhibition rate=1−growth rate, and the minimum concentration with the inhibition rate greater than 80% is the minimum inhibitory concentration (MIC) value.
# [2] = test system: Drug-resistant Candida albicans CA10; assay: MIC by microdilution method, drug-resistant Candida albicans CA10; details: clinically isolated azole multi-drug resistant strain CA10; 24 h
# Excerpt: as §1, §2, §3
# [3] = test system: Staphylococcus aureus BNCC186335; assay: MIC by microdilution method, sensitive Staphylococcus aureus; details: read-out: MIC Staphylococcus aureus
# Excerpt: as §1, §2, §3
# [4] = test system: Pseudomonas aeruginosa Migula BNCC337940; assay: MIC by microdilution method, sensitive Pseudomonas aeruginosa Migula; details: 24 h, read-out: MIC Pseudomonas aeruginosa Migula
# Excerpt: as §1, §2, §3
# [5] = test system: Aspergillus fumigatus Fresenius BNCC338385; assay: MIC by microdilution method, sensitive Aspergillus fumigatus Fresenius; details: Aspergillus fumigatus, 24 h, read-out: MIC Aspergillus fumigatus Fresenius
# Excerpt: as §1, §2, §3
# [6] = test system: Escherichia coli BNCC336902; assay: MIC by microdilution method, sensitive Escherichia coli; details: read-out: MIC Escherichia coli
# Excerpt: as §1, §2, §3
# [7] = test system: Candida albicans BNCC186382; assay: MIC by microdilution method, sensitive Candida albicans; details: Candida albicans, read-out: MIC Candida albicans
# Excerpt: as §1, §2, §3
# [8] = test system: Candida albicans CA10; assay: Checkerboard microdilution assay of compound combined with fluconazole, FICI model; details: Candida albicans; CA10; fluconazole alone; read-out: MIC of azole (fluconazole) used separately
# Method: The concentration of Candida albicans CA10 is adjusted to 0.5-2.5×10^3 CFU/mL by using RPMI-1640 medium, and the diluted bacterial solution is used for preparing a working solution of the compound and the azole drug with double concentration gradient. 50 μl of working solution of double concentration of azole drugs and working solution of double concentration of the compound to be detected at each concentration gradient are added in the longitudinal (A-H) direction and transverse (1-12) direction of the 96-well plate respectively, so that the final drug concentration range of fluconazole is 4-64 μg/ml, and the drug concentration range of the compound is 256-16 μg/ml. The 96-well plate is cultured in a constant temperature incubator at 35° C. for 24 h. The amount of viable bacteria is detected with an XTT cell proliferation assay kit, and the absorbance of each well at 490 nm wavelength is detected by the microplate reader. Growth rate=dosing well value/control well value×100%, and inhibition rate=1−growth rate. The MIC when the inhibition rate is about 80% is a break point of the combination of two drugs.
# The combination data of the compound and the azole drug collected by the checkerboard microdilution assay are analyzed by an FICI (fractional inhibitory concentration index) model, and the interaction effects are evaluated.
# The FICI model can be expressed by the following formula: […]
# Wherein: MICA and MICB are MIC values of drug A and drug B used separately, while MICAB and MICBA are the concentrations of drug A and drug B corresponding to the minimum effective dose of the combination of drug A and drug B.
# [9] = BNCC225501, sensitive strain, 35° C., 24 h, minimum concentration with inhibition rate greater than 80%
# [10] = BNCC186335, sensitive strain, 35° C., 24 h, minimum concentration with inhibition rate greater than 80%
# [11] = sensitive strain, 35° C., minimum concentration with inhibition rate greater than 80%
# [12] = BNCC336902, sensitive strain, 35° C., 24 h, minimum concentration with inhibition rate greater than 80%
# [13] = BNCC186382, sensitive strain, 35° C., 24 h, minimum concentration with inhibition rate greater than 80%
"MIC [1, 9]","MIC [3, 10]","MIC [4, 11]","MIC [5, 11]","MIC [6, 12]","MIC [7, 13]",MIC [8],SMILES,MIC80 Drug-resistant Candida albicans CA10 [2],"MIC ([1]; BNCC225501, 24 h)","MIC ([3]; BNCC186335, 24 h)",MIC [4],MIC [5],"MIC ([6]; BNCC336902, 24 h)","MIC ([7]; BNCC186382, 24 h)"
> 256 µg/mL,> 256 µg/mL,> 256 µg/mL,> 256 µg/mL,> 256 µg/mL,> 256 µg/mL,–,Clc1ccc2[nH]c(-c3ccccc3)cc2c1 [Compound 21],> 256 µg/mL,–,–,–,–,–,–
256 µg/mL,256 µg/mL,8 µg/mL,256 µg/mL,256 µg/mL,256 µg/mL,–,Brc1ccc2cc(-c3ccccc3)[nH]c2c1 [Compound 23],> 256 µg/mL,–,–,–,–,–,–
–,–,–,–,–,–,–,Fc1ccc(-c2cc3ccccc3[nH]2)cc1 [Compound 10],> 256 µg/mL,> 256 µg/mL,> 256 µg/mL,> 256 µg/mL,> 256 µg/mL,> 256 µg/mL,> 256 µg/mL
–,–,–,–,–,–,–,COc1cccc(-c2cc3ccccc3[nH]2)c1 [Compound 1],> 256 µg/mL,4 µg/mL,64 µg/mL,8 µg/mL,8 µg/mL,4 µg/mL,16 µg/mL
–,–,–,–,–,–,–,FC(F)(F)c1ccc(-c2cc3ccccc3[nH]2)cc1 [Compound 13],> 256 µg/mL,256 µg/mL,256 µg/mL,16 µg/mL,256 µg/mL,256 µg/mL,256 µg/mL
256 µg/mL,8 µg/mL,32 µg/mL,16 µg/mL,256 µg/mL,8 µg/mL,–,COC(=O)c1ccc2[nH]c(-c3ccccc3)cc2c1 [Compound 19],> 256 µg/mL,–,–,–,–,–,–
–,–,–,–,–,–,–,c1ccc(-c2cc3ccccc3[nH]2)cc1 [Compound 6],> 256 µg/mL,256 µg/mL,> 256 µg/mL,> 256 µg/mL,> 256 µg/mL,> 256 µg/mL,> 256 µg/mL
–,–,–,–,–,–,–,Cc1ccc(-c2cc3ccccc3[nH]2)cc1 [Compound 8],> 256 µg/mL,256 µg/mL,256 µg/mL,256 µg/mL,256 µg/mL,8 µg/mL,256 µg/mL
–,2 µg/mL,2 µg/mL,–,2 µg/mL,–,–,"[H]/N=C(/N)N[C@H]1[C@H](O)[C@@H](O)[C@H](O[C@@H]2O[C@@H](C)[C@](O)(C=O)[C@H]2O[C@@H]2O[C@@H](CO)[C@H](O)[C@@H](O)[C@@H]2NC)[C@@H](N/C(N)=N\[H])[C@@H]1O [Streptomycin, reference compound]",–,–,–,–,–,–,–
2 µg/mL,–,–,2 µg/mL,–,2 µg/mL,> 128 µg/mL,"OC(Cn1cncn1)(Cn1cncn1)c1ccc(F)cc1F [Fluconazole, fluconazole, reference compound]",> 128 µg/mL,–,–,–,–,–,–

# Reference: patent US20250154099A1, “PREPARATION METHOD OF 2-PHENYLINDOLE DERIVATIVES AND APPLICATION THEREOF” (Shihezi University, priority 2022, published 2025)
